{
  "source": "patent US8231916B2",
  "about": "“Use of a rice protein hydrolysate as pigmenting active principle” (Laboratoires Expanscience, priority 2006, dated 2012)",
  "test_system": "human cutaneous fibroblasts",
  "test": "Intracellular glutathione (GSH) in dermal fibroblasts irradiated with UVA",
  "type": "cell-based",
  "settings": "5 mM, 15 J/cm^2 UVA",
  "method": "Dermal fibroblasts were inoculated in 60 mm petri dishes. The cells were pre-treated for 18 hours with 5 mM rice peptides or N-acetyl-cysteine (NAC=reference antioxidant molecule) and then irradiated at a dose of 15 J/cm^2 UVA. After irradiation, the fibroblasts were incubated for an additional 3 h at 37° C.\nAt the end of the treatment, two series of samples were collected in order to evaluate: • a. Total quantity of proteins according to the Lowry method. • b. The ratio of intracellular glutathione by assay (commercial kit).",
  "data": [
    {"smiles": "CC(=O)N[C@@H](CS)C(=O)O", "note": "[NAC, N-acetyl-cysteine]", "values": [
      {"measurement": "GSH (μmol/g proteins)", "result": 28.209, "unit": "μmol/g proteins"},
      {"measurement": "GSH, % increase compared to irradiated control cells", "result": 29, "unit": "%"},
      {"measurement": "GSH", "setting": "18 hours pre-treatment", "result": 21.10, "unit": "µM"}
    ]}
  ]
}
